According to DBAASP:
In brackets after ≈: the same amount, converted by molar mass. Several values for one entry are separate records, joined by “and”; a condition that tells them apart may be missing. Identical values can stand only once. Blank lines part the entries; values can stand above or below the compound they belong to.

Tests used:
Experiment in all cases: ≥ marks a high value that may be exact or a test limit, other limits are often not marked, values filed in µg/mL are converted to µM
[1] = system: Streptococcus gordonii Challis DL1
Staphylococcus aureus = system: Staphylococcus aureus
[2] = system: Pseudomonas aeruginosa PAK
[3] = system: Streptococcus sanguinis NY101
[4] = system: Streptococcus mitis ATCC 903
[5] = system: Streptococcus mutans UA159
Bacillus subtilis 168 = system: Bacillus subtilis 168
Pseudomonas aeruginosa = system: Pseudomonas aeruginosa
Escherichia coli B = system: Escherichia coli B
[6] = system: Staphylococcus aureus SAP 0017
[7] = system: Salmonella enterica subsp. enterica serovar Pullorum ATCC 7913
[8] = system: Candida tropicalis CGMCC 2.1975
[9] = system: Staphylococcus epidermidis ATCC 12228
[10] = system: Salmonella enterica subsp. enterica serovar Typhimurium ATCC 14028
[11] = system: Candida albicans CGMCC 2.2086
Escherichia coli K88 = system: Escherichia coli K88
Escherichia coli K99 = system: Escherichia coli K99
[12] = system: Candida parapsilosis CGMCC 2.3989
[13] = system: Pseudomonas aeruginosa ATCC 27853
Escherichia coli 078 = system: Escherichia coli 078
[14] = system: Staphylococcus aureus ATCC 29213
[15] = system: Salmonella enterica subsp. enterica serovar Typhimurium C77-31
[16] = system: Staphylococcus aureus ATCC 43300
[17] = system: Staphylococcus aureus ATCC 25923
[18] = system: Escherichia coli ATCC 25922
Escherichia coli UB1005 = system: Escherichia coli UB1005
[19] = system: Candida albicans ATCC 2002
Bacillus cereus = system: Bacillus cereus
Shigella dysenteriae = system: Shigella dysenteriae
[20] = system: Staphylococcus aureus ATCC 2592

- MIC [1]: 9.6 µM (≈ 32 µg/mL)
- MIC (Staphylococcus aureus): 9.6 µM (≈ 32 µg/mL)
- MIC [2]: 9.6 µM (≈ 32 µg/mL)
- MIC [3]: 4.8 µM (≈ 16 µg/mL)
- MIC [4]: 18.7 µM (≈ 62.5 µg/mL)
- MIC [5]: 4.8 µM (≈ 16 µg/mL)
SMILES: CC[C@H](C)[C@H](NC(=O)[C@H](Cc1ccccc1)NC(=O)[C@H](Cc1cnc[nH]1)NC(=O)[C@H](CCCCN)NC(=O)[C@@H](NC(=O)[C@@H](N)Cc1ccccc1)[C@@H](C)CC)C(=O)N[C@@H](Cc1cnc[nH]1)C(=O)N[C@@H](CCCN=C(N)N)C(=O)N[C@@H](Cc1ccccc1)C(=O)N[C@@H](CO)C(=O)NCC(=O)NCC(=O)N[C@@H](CCCN=C(N)N)C(=O)N[C@@H](Cc1c[nH]c2ccccc12)C(=O)N[C@@H](CCCN=C(N)N)C(=O)N[C@@H](CCCN=C(N)N)C(=O)N[C@@H](CC(C)C)C(=O)N[C@@H](CC(C)C)C(=O)N[C@@H](CCCCN)C(=O)N[C@@H](CCCCN)C(=O)N[C@@H](CC(C)C)C(=O)N[C@@H](Cc1cnc[nH]1)C(=O)N[C@@H](Cc1cnc[nH]1)C(=O)N[C@@H](CC(C)C)C(=O)N[C@@H](CC(C)C)C(=O)N[C@@H](Cc1cnc[nH]1)C(N)=O [FIKHFIHRFSGGRWRRLLKKLHHLLH]

- MIC (Bacillus subtilis 168): ≥ 100 µM
- MIC (Pseudomonas aeruginosa): > 100 µM
- MIC (Staphylococcus aureus): > 100 µM
- MIC (Escherichia coli B): 25 µM (≈ 34.8 µg/mL)
SMILES: CC[C@H](C)[C@H](NC(=O)[C@H](CC(C)C)NC(=O)[C@H](Cc1cnc[nH]1)NC(=O)CNC(=O)[C@@H]1CCCN1C(=O)[C@@H](NC(=O)[C@H](CCCCN)NC(=O)[C@H](CO)NC(=O)[C@H](Cc1c[nH]c2ccccc12)NC(=O)[C@H](CCSC)NC(=O)CN)[C@@H](C)CC)C(=O)N[C@@H](CCCN=C(N)N)C(N)=O [GMWSKIPGHLIR]

- MIC [1]: 4.63 µM (≈ 8 µg/mL)
- MIC (Staphylococcus aureus): 9.27 µM (≈ 16 µg/mL)
- MIC [2]: 4.63 µM (≈ 8 µg/mL)
- MIC [3]: 4.63 µM (≈ 8 µg/mL)
- MIC [4]: 9.27 µM (≈ 16 µg/mL)
- MIC [5]: 4.63 µM (≈ 8 µg/mL)
SMILES: CC(C)C[C@H](NC(=O)[C@H](CC(C)C)NC(=O)[C@H](CCCCN)NC(=O)[C@H](CC(C)C)NC(=O)[C@H](CC(C)C)NC(=O)[C@H](CCC(N)=O)NC(=O)[C@H](CCCCN)NC(=O)[C@H](CC(C)C)NC(=O)[C@H](CC(C)C)NC(=O)[C@H](CCC(N)=O)NC(=O)[C@@H](N)CC(C)C)C(=O)N[C@@H](CCCCN)C(=O)N[C@@H](CCC(N)=O)C(=O)N[C@@H](Cc1ccccc1)C(N)=O [LQLLKQLLKLLKQF]

- MIC [6]: 1 µM and 2 µM
SMILES: CC[C@H](C)[C@H](NC(=O)[C@H](C)NC(=O)[C@H](CCCN=C(N)N)NC(=O)[C@H](CC(C)C)NC(=O)[C@@H](NC(=O)[C@H](CCCCN)NC(=O)[C@H](CC(C)C)NC(=O)[C@H](CC(C)C)NC(=O)[C@H](Cc1c[nH]c2ccccc12)NC(=O)[C@H](CCCCN)NC(=O)[C@@H](NC(=O)[C@@H](N)C(C)C)[C@@H](C)CC)[C@@H](C)CC)C(N)=O [VIKWLLKILRAI]

- MIC [7]: ≥ 128 µM
- MIC [8]: ≥ 128 µM
- MIC [9]: > 128 µM
- MIC [10]: > 128 µM
- MIC [11]: ≥ 128 µM
- MIC (Escherichia coli K88): ≥ 128 µM
- MIC (Escherichia coli K99): ≥ 128 µM
- MIC [12]: ≥ 128 µM
- MIC [13]: > 128 µM
- MIC (Escherichia coli 078): ≥ 128 µM
- MIC [14]: > 128 µM
- MIC [15]: ≥ 128 µM
- MIC [16]: > 128 µM
- MIC [17]: > 128 µM
- MIC [18]: > 128 µM
- MIC (Escherichia coli UB1005): ≥ 128 µM
SMILES: CC[C@H](C)[C@H](NC(=O)[C@H](CCCN=C(N)N)NC(=O)[C@H](C)NC(=O)[C@H](C)N)C(=O)N[C@H](C(=O)N[C@@H](CC(C)C)C(=O)N[C@@H](CCCN=C(N)N)C(=O)N[C@@H](CC(=O)O)C(=O)N[C@@H](CCCN=C(N)N)C(=O)N[C@@H](Cc1ccccc1)C(=O)N[C@@H](CCCN=C(N)N)C(N)=O)[C@@H](C)CC [AARIILRDRFR]

- MIC [1]: 9.43 µM (≈ 32 µg/mL)
- MIC (Staphylococcus aureus): 4.72 µM (≈ 16 µg/mL)
- MIC [2]: 9.43 µM (≈ 32 µg/mL)
- MIC [3]: 9.43 µM (≈ 32 µg/mL)
- MIC [4]: 9.43 µM (≈ 32 µg/mL)
- MIC [5]: 4.72 µM (≈ 16 µg/mL)
SMILES: CC[C@H](C)[C@H](NC(=O)[C@H](Cc1ccccc1)NC(=O)[C@H](Cc1cnc[nH]1)NC(=O)[C@H](CCCCN)NC(=O)[C@@H](NC(=O)[C@@H](N)Cc1ccccc1)[C@@H](C)CC)C(=O)N[C@@H](Cc1cnc[nH]1)C(=O)N[C@@H](CCCN=C(N)N)C(=O)N[C@@H](Cc1ccccc1)C(=O)N[C@@H](CO)C(=O)N[C@@H](C)C(=O)N[C@H](C(=O)N[C@@H](CCCN=C(N)N)C(=O)N[C@@H](Cc1c[nH]c2ccccc12)C(=O)N[C@@H](CCCN=C(N)N)C(=O)N[C@@H](CCCN=C(N)N)C(=O)N[C@@H](CC(C)C)C(=O)N[C@@H](CC(C)C)C(=O)N[C@@H](CCCCN)C(=O)N[C@@H](CCCCN)C(=O)N[C@@H](CC(C)C)C(=O)N[C@@H](Cc1cnc[nH]1)C(=O)N[C@@H](Cc1cnc[nH]1)C(=O)N[C@@H](CC(C)C)C(=O)N[C@@H](CC(C)C)C(=O)N[C@@H](Cc1cnc[nH]1)C(N)=O)[C@@H](C)O [FIKHFIHRFSATRWRRLLKKLHHLLH]

- MIC [19]: 3.08 µM (≈ 6.24 µg/mL)
- MIC (Bacillus cereus): 6.17 µM (≈ 12.5 µg/mL)
- MIC (Shigella dysenteriae): 3.08 µM (≈ 6.24 µg/mL)
- MIC (Pseudomonas aeruginosa): 6.17 µM (≈ 12.5 µg/mL)
- MIC [18]: 24.7 µM (≈ 50 µg/mL)
- MIC [20]: 6.17 µM (≈ 12.5 µg/mL)
SMILES: CSCC[C@@H]1NC(=O)[C@H](CC(C)C)NC(=O)[C@H](C)NC(=O)[C@H](CCCN=C(N)N)NC(=O)[C@H](CC(N)=O)NC(=O)[C@@H](NC(=O)[C@H](CCCCN)NC(=O)[C@H](CC(N)=O)NC(=O)[C@H](CCCN=C(N)N)NC(=O)[C@@H]2CCCN2C(=O)[C@H](CCSC)NC(=O)[C@H](CO)NC(=O)[C@H](CC(C)C)NC(=O)[C@H](C)NC(=O)[C@@H](N)CC(N)=O)CSSC[C@@H](C(=O)N[C@@H](Cc2ccccc2)C(=O)NCC(=O)O)NC1=O [NALSMPRNKCNRALMCFG]

- MIC [1]: 4.72 µM (≈ 16 µg/mL)
- MIC (Staphylococcus aureus): 9.43 µM (≈ 32 µg/mL)
- MIC [2]: 9.43 µM (≈ 32 µg/mL)
- MIC [3]: 4.72 µM (≈ 16 µg/mL)
- MIC [4]: 4.72 µM (≈ 16 µg/mL)
- MIC [5]: 2.36 µM (≈ 8 µg/mL)
SMILES: CC[C@H](C)[C@H](NC(=O)[C@H](Cc1ccccc1)NC(=O)[C@H](Cc1cnc[nH]1)NC(=O)[C@H](CCCCN)NC(=O)[C@@H](NC(=O)[C@H](Cc1ccccc1)NC(=O)[C@@H](NC(=O)[C@H](C)NC(=O)[C@H](CO)NC(=O)[C@H](Cc1cnc[nH]1)NC(=O)[C@H](CC(C)C)NC(=O)[C@H](CC(C)C)NC(=O)[C@H](Cc1cnc[nH]1)NC(=O)[C@H](Cc1cnc[nH]1)NC(=O)[C@H](CC(C)C)NC(=O)[C@H](CCCCN)NC(=O)[C@H](CCCCN)NC(=O)[C@H](CC(C)C)NC(=O)[C@H](CC(C)C)NC(=O)[C@H](CCCN=C(N)N)NC(=O)[C@H](CCCN=C(N)N)NC(=O)[C@H](Cc1c[nH]c2ccccc12)NC(=O)[C@@H](N)CCCN=C(N)N)[C@@H](C)O)[C@@H](C)CC)C(=O)N[C@@H](Cc1cnc[nH]1)C(=O)N[C@@H](CCCN=C(N)N)C(=O)N[C@@H](Cc1ccccc1)C(N)=O [RWRRLLKKLHHLLHSATFIKHFIHRF]
